Tests used:
[1] = Antiviral activity against Influenza A virus (A/California/07/2009(H1N1)) infected in MDCK cells; assay type: functional, cell-based
[2] = Cytotoxicity against Influenza A virus (A/California/07/2009(H1N1)) infected MDCK cells; assay type: cell-based, Canis lupus familiaris; details: dog
[3] = Selectivity index, ratio of CC50 for Influenza A virus (A/California/07/2009(H1N1)) infected MDCK cells to EC50 for antiviral activity against Influenza A virus H1N1 (A/California/07/2009(H1N1)) infected in MDCK cells; assay type: toxicity, cell-based; details: dog; read-out: Ratio CC50/EC50
[4] = Antiviral activity against Influenza A virus (A/Brisbane/10/2007(H3N2)) infected in MDCK cells; assay type: functional, cell-based
[5] = Cytotoxicity against Influenza A virus (A/Brisbane/10/2007(H3N2)) infected MDCK cells; assay type: cell-based, Canis lupus familiaris; details: dog
[6] = Antiviral activity against Influenza A virus (A/Viet Nam/1203/2004(H5N1)) infected in MDCK cells; assay type: functional, cell-based
[7] = Cytotoxicity against Influenza A virus (A/Viet Nam/1203/2004(H5N1)) infected MDCK cells; assay type: cell-based, Canis lupus familiaris; details: dog
[8] = tested on: Influenza B virus; assay: Antiviral activity against Influenza B virus (B/Florida/4/2006) in MDCK cells; assay type: functional, cell-based; details: B/Florida/4/2006, MDCK
[9] = Cytotoxicity against Influenza B virus (B/Florida/4/2006) infected MDCK cells; assay type: cell-based, Canis lupus familiaris; details: dog
[10] = Selectivity index, ratio of CC50 for Influenza B virus (B/Florida/4/2006) infected MDCK cells to EC50 for antiviral activity against Influenza B virus (B/Florida/4/2006) in MDCK cells; assay type: toxicity, cell-based; details: dog; read-out: Ratio CC50/EC50
[11] = Selectivity index, ratio of CC50 for Influenza A virus (A/Brisbane/10/2007(H3N2)) infected MDCK cells to EC50 for antiviral activity against Influenza A virus (A/Brisbane/10/2007(H3N2)); assay type: toxicity, cell-based; details: dog; read-out: Ratio CC50/EC50
[12] = Selectivity index, ratio of CC50 for Influenza A virus (A/Viet Nam/1203/2004(H5N1)) infected MDCK cells to EC50 for antiviral activity against Influenza A virus (A/Viet Nam/1203/2004(H5N1)) infected in MDCK cells; assay type: toxicity, cell-based; details: dog; read-out: Ratio CC50/EC50

SMILES	EC50 [1]	CC50 [2]	selectivity ratio [3]	EC50 [4]	CC50 [5]	EC50 [6]	CC50 [7]	EC50 [8]	CC50 [9]	selectivity ratio [10]	selectivity ratio [11]	selectivity ratio [12]
COC(=O)[C@]1(C)CCC[C@]2(C)[C@H]3C[C@H]4C(C(C)C)=C[C@]3(CC[C@H]21)[C@@H]1C(=O)CC[C@H](OC(=O)/C=C/c2ccccc2)[C@@H]14	31 µM	35 µM	1.1	> 17 µM	17 µM	> 9 µM	9 µM	10 µM	24 µM	2.4		
COC(=O)[C@H](C)NC(=O)[C@]1(C)CCC[C@]2(C)[C@H]3C[C@H]4C(C(C)C)=C[C@]3(CC[C@H]21)[C@@H]1C(=O)OC(=O)[C@@H]14	32 µM	34 µM	1.1	32 µM	33 µM	32 µM	33 µM	32 µM	33 µM	1	1	1
CC(C)C1=C[C@]23CC[C@@H]4[C@](C)(CCC[C@@]4(C)C(=O)O)[C@H]2C[C@H]1[C@H]1C(=O)OC(=O)[C@H]13	31 µM	48 µM	1.5	37 µM	44 µM	32 µM	35 µM	27 µM	36 µM	1.3	1.2	1.1
COC(=O)[C@H](CCSC)NC(=O)[C@]1(C)CCC[C@]2(C)[C@H]3C[C@H]4C(C(C)C)=C[C@]3(CC[C@H]21)[C@@H]1C(=O)OC(=O)[C@@H]14	31 µM	34 µM	1.1	> 30 µM	30 µM	32 µM	32 µM	32 µM	32 µM	1		1
COC(=O)[C@]1(C)CCC[C@]2(C)[C@H]3C[C@H]4C(C(C)C)=C[C@]3(CC[C@H]21)[C@@H]1C(=O)CC[C@H](OC(=O)c2cccnc2)[C@@H]14	32 µM	35 µM	1.1	32 µM	33 µM	3.2 µM	3.2 µM	3.2 µM	3.2 µM	1	1	1
COC(=O)[C@]1(C)CCC[C@]2(C)[C@H]3C[C@H]4C(C(C)C)=C[C@]3(CC[C@H]21)[C@@H]1C(=O)[C@H]2O[C@H]2C(=O)[C@@H]14	29 µM	34 µM	1.2	> 23 µM	23 µM	3.2 µM	3.3 µM	3.2 µM	3.3 µM	1		1
COC(=O)[C@]1(C)CCC[C@]2(C)[C@H]3C[C@H]4C(C(C)C)=C[C@]3(CC[C@H]21)[C@@H]1C(=O)CCC(=O)[C@@H]14	> 100 µM	> 100 µM		> 100 µM	> 100 µM	> 100 µM	> 100 µM	32 µM	> 100 µM	> 3.1		
